Several values for one entry are separate records, joined by “and”; a condition that tells them apart may be missing. Equal values may be shown once. Inconclusive results and toxic doses are left out. No stated cut-off is given here; in the data, active means T/C of 150% or more; inactive means T/C below 125%.
Test system: L1210 leukemia ip in BDF1 mice, survival T/C
Assay: NCI In Vivo Anticancer Drug Screen. Data for tumor model L1210 Leukemia (intraperitoneal) in B6D2F1 (BDF1) mice
Settings: endpoint: mean survival time, higher = longer survival
In short: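 Mice bearing the transplanted tumor received compound or vehicle. Survival of the treated group was divided by that of the vehicle-treated control group to give the ratio.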

[1] = dose: 100.0 mg/kg/injection, schedule: Q01DX001 (ip), vehicle: saline
[2] = dose: 200.0 mg/kg/injection, schedule: Q01DX001 (ip), vehicle: saline
[3] = dose: 400.0 mg/kg/injection, schedule: Q01DX001 (ip), vehicle: saline
[4] = dose: 100.0 mg/kg/injection, schedule: Q04DX003 (ip), vehicle: Klucel (hydroxypropylcellulose) (HPC)
[5] = dose: 200.0 mg/kg/injection, schedule: Q04DX003 (ip), vehicle: Klucel (hydroxypropylcellulose) (HPC)
[6] = dose: 400.0 mg/kg/injection, schedule: Q04DX003 (ip), vehicle: Klucel (hydroxypropylcellulose) (HPC)
[7] = dose: 6.25 mg/kg/injection, schedule: Q01DX009 (ip), vehicle: saline
[8] = dose: 12.5 mg/kg/injection, schedule: Q01DX009 (ip), vehicle: saline
[9] = dose: 25.0 mg/kg/injection, schedule: Q01DX009 (ip), vehicle: saline
[10] = dose: 50.0 mg/kg/injection, schedule: Q01DX001 (ip), vehicle: saline
[11] = dose: 100.0 mg/kg/injection, schedule: Q01DX009 (ip), vehicle: saline
[12] = dose: 100.0 mg/kg/injection, schedule: Q04DX003 (ip), vehicle: saline
[13] = dose: 200.0 mg/kg/injection, schedule: Q04DX003 (ip), vehicle: saline
[14] = dose: 400.0 mg/kg/injection, schedule: Q04DX003 (ip), vehicle: saline
[15] = dose: 75.0 mg/kg/injection, schedule: Q01DX001 (ip), vehicle: saline
[16] = dose: 150.0 mg/kg/injection, schedule: Q01DX001 (ip), vehicle: saline
[17] = dose: 100.0 mg/kg/injection, schedule: Q01DX001 (ip), vehicle: Klucel (hydroxypropylcellulose) (HPC)
[18] = dose: 200.0 mg/kg/injection, schedule: Q01DX001 (ip), vehicle: Klucel (hydroxypropylcellulose) (HPC)
[19] = dose: 400.0 mg/kg/injection, schedule: Q01DX001 (ip), vehicle: Klucel (hydroxypropylcellulose) (HPC)

Measured: T/C

O=C(c1ccccc1)C1(c2ccccc2)SC1(C(=O)c1ccccc1)c1ccccc1 (centres undefined)
inactive: dose: 100.0 mg/kg/injection, schedule: Q04DX003 (ip), vehicle: saline with Tween-80 92 % of control | dose: 200.0 mg/kg/injection, schedule: Q04DX003 (ip), vehicle: saline with Tween-80 91 % of control | dose: 400.0 mg/kg/injection, schedule: Q04DX003 (ip), vehicle: saline with Tween-80 87 % of control

C[Si]1(C)CCCSC1
inactive: [1] 93 % of control | [2] 96 % of control | [3] 97 % of control

CCOC(=O)N1C2C=CC(C2)N1C(=O)OCC
inactive: dose: 100.0 mg/kg/injection, schedule: Q04DX002 (sc), vehicle: olive oil, sesame oil, peanut oil 94 % of control | dose: 200.0 mg/kg/injection, schedule: Q04DX002 (sc), vehicle: olive oil, sesame oil, peanut oil 102 % of control | dose: 400.0 mg/kg/injection, schedule: Q04DX002 (sc), vehicle: olive oil, sesame oil, peanut oil 97 % of control

O=C1N(c2cc([N+](=O)[O-])ccc2F)C(=O)C(F)(F)C1(F)F
inactive: dose: 100.0 mg/kg/injection, schedule: Q01DX001 (ip), vehicle: saline with Tween-80 102 % of control | dose: 200.0 mg/kg/injection, schedule: Q01DX001 (ip), vehicle: saline with Tween-80 97 % of control

CC1(CCCC2C(=O)N(c3ccccc3)N(c3ccccc3)C2=O)OCCO1
inactive: [4] 104 % of control | [5] 98 % of control | [6] 94 % of control

CC1C2CC3C(OC(=O)C13C)C2I (centres undefined)
inactive: [1] 110 % of control | [2] 96 % of control | [3] 113 % of control

O=C(Nc1cc2ccccc2nc1-c1ccccc1)c1ccccc1
inactive: [1] 92 % of control

O=c1[nH]c(=O)c2cccnc2[nH]1
inactive: dose: 3.12 mg/kg/injection, schedule: Q01DX009 (ip), vehicle: saline 109 % of control | [7] 107 % of control | [8] 115 % of control | dose: 25.0 mg/kg/injection, schedule: Q01DX001 (ip), vehicle: saline 100 % of control | [9] 108 % of control | [10] 105 % of control | dose: 50.0 mg/kg/injection, schedule: Q01DX009 (ip), vehicle: saline 100 % of control | [1] 98 % of control and 100 % of control | [11] 94 % of control | [2] 98 % of control and 100 % of control

N#CCCOCCOCCC#N
inactive: [12] 109 % of control | [13] 101 % of control | [14] 95 % of control

FC(F)(F)S.[Ag]
inactive: [15] 95 % of control | [16] 95 % of control

N#CC(C#N)=C1CCC(=C(C#N)C#N)CC1
inactive: dose: 50.0 mg/kg/injection, schedule: Q04DX003 (ip), vehicle: Klucel (hydroxypropylcellulose) (HPC) 104 % of control | [17] 105 % of control | [4] 121 % of control | [18] 118 % of control | [5] 96 % of control | [19] 105 % of control

c1coc(NC2CCCCC2)n1
inactive: dose: 100.0 mg/kg/injection, schedule: Q01DX009 (ip), vehicle: saline with Tween-80 100 % of control | dose: 200.0 mg/kg/injection, schedule: Q01DX009 (ip), vehicle: saline with Tween-80 92 % of control | dose: 400.0 mg/kg/injection, schedule: Q01DX009 (ip), vehicle: saline with Tween-80 86 % of control

CCOC(=O)N1C(C(=O)c2ccccc2)N(Cc2ccccc2)C(c2ccccc2)N1C(=O)OCC (centres undefined)
inactive: [10] 105 % of control | [1] 97 % of control | [2] 105 % of control | [3] 100 % of control

COc1cc(=O)oc(/C=C/C=C/C=C/C(C)=C\C2(C)OC(C)C(C)(O)C2O)c1C (centres undefined)
inactive: dose: 12.5 mg/kg/injection, schedule: Q01DX009 (ip), vehicle: other 93 % of control | dose: 25.0 mg/kg/injection, schedule: Q01DX009 (ip), vehicle: other 100 % of control | dose: 50.0 mg/kg/injection, schedule: Q01DX009 (ip), vehicle: other 93 % of control

C[N+](C)(C)CCOC(=O)c1cccc(CBr)c1CBr
inactive: [7] 103 % of control | dose: 6.25 mg/kg/injection, schedule: Q04DX003 (ip), vehicle: saline 104 % of control | [8] 97 % of control | dose: 12.5 mg/kg/injection, schedule: Q04DX003 (ip), vehicle: saline 98 % of control | [9] 97 % of control | dose: 25.0 mg/kg/injection, schedule: Q04DX003 (ip), vehicle: saline 104 % of control

CC1OC(C2COC(C)(C)O2)C2OCOC12 (centres undefined)
inactive: dose: 100.0 mg/kg/injection, schedule: Q04DX002 (ip), vehicle: saline with Tween-80 100 % of control | dose: 200.0 mg/kg/injection, schedule: Q04DX002 (ip), vehicle: saline with Tween-80 100 % of control | dose: 400.0 mg/kg/injection, schedule: Q04DX002 (ip), vehicle: saline with Tween-80 100 % of control

CCCOC(=O)c1ccc(NCC(C)(C)[N+](=O)[O-])cc1
inactive: [11] 95 % of control | dose: 200.0 mg/kg/injection, schedule: Q01DX009 (ip), vehicle: saline 117 % of control | dose: 400.0 mg/kg/injection, schedule: Q01DX009 (ip), vehicle: saline 91 % of control

O=C(O)CCSCCC(=O)O
inactive: dose: 75.0 mg/kg/injection, schedule: Q01DX009 (ip), vehicle: Klucel (hydroxypropylcellulose) (HPC) 92 % of control | dose: 75.0 mg/kg/injection, schedule: Q04DX003 (ip), vehicle: saline 100 % of control | dose: 150.0 mg/kg/injection, schedule: Q01DX009 (ip), vehicle: Klucel (hydroxypropylcellulose) (HPC) 92 % of control | dose: 150.0 mg/kg/injection, schedule: Q04DX003 (ip), vehicle: saline 100 % of control | dose: 300.0 mg/kg/injection, schedule: Q01DX009 (ip), vehicle: Klucel (hydroxypropylcellulose) (HPC) 94 % of control | dose: 300.0 mg/kg/injection, schedule: Q04DX003 (ip), vehicle: saline 102 % of control

CCCCCC(C)(O)CCCCC
inactive: dose: 100.0 mg/kg/injection, schedule: Q01DX001 (ip), vehicle: carboxymethylcellulose (CMC) 101 % of control | dose: 200.0 mg/kg/injection, schedule: Q01DX001 (ip), vehicle: carboxymethylcellulose (CMC) 97 % of control | dose: 400.0 mg/kg/injection, schedule: Q01DX001 (ip), vehicle: carboxymethylcellulose (CMC) 97 % of control

CCCCCCCCCC(=O)N1C(C)CCCC1C (centres undefined)
inactive: dose: 100.0 mg/kg/injection, schedule: Q04DX002 (ip), vehicle: saline 94 % of control | dose: 200.0 mg/kg/injection, schedule: Q04DX002 (ip), vehicle: saline 105 % of control | dose: 400.0 mg/kg/injection, schedule: Q04DX002 (ip), vehicle: saline 105 % of control

O=C(O)C(F)(F)C(F)(Cl)C(F)(F)C(F)(Cl)C(F)(F)C(F)(Cl)C(F)(F)Cl (centres undefined) (tested in a mixture with another compound)
inactive: [12] 90 % of control | [13] 101 % of control | [14] 101 % of control

O=S(=O)(F)c1ccc(C[P+](c2ccccc2)(c2ccccc2)c2ccccc2)cc1
inactive: [15] 106 % of control | [16] 105 % of control | dose: 300.0 mg/kg/injection, schedule: Q01DX001 (ip), vehicle: saline 98 % of control

Cc1ccc(Nc2ccc([N+](=O)[O-])cc2)cc1
inactive: dose: 100.0 mg/kg/injection, schedule: Q01DX001 (ip), vehicle: gum acacia 93 % of control | dose: 200.0 mg/kg/injection, schedule: Q01DX001 (ip), vehicle: gum acacia 100 % of control

O=[N+]([O-])c1cccc(C=Nc2ccccc2Cl)c1
inactive: [17] 101 % of control and 103 % of control | [18] 101 % of control | [19] 101 % of control and 103 % of control

O=C(N/N=C(\C=N\NC(=O)c1ccccc1)CC(O)C(O)CO)c1ccccc1 (centres undefined)
inactive: [4] 91 % of control | [5] 96 % of control | [6] 93 % of control

COc1ccccc1-n1c(O)c(N=Nc2ccc(C)cc2)c(=O)n(-c2ccc(Cl)cc2)c1=S
inactive: [17] 106 % of control | [18] 100 % of control
